Test results: patent US7888363B2, “Viral polymerase inhibitors” (Boehringer Ingelheim International GmbH, priority 2003, dated 2011)

Target: hepatitis C virus RNA dependant polymerase (NS5B) (Hepatitis C virus genotype 1b, UniProt P26663)
Test: Inhibition of NS5B RNA dependent RNA polymerase activity
Assay type: biochemical
Procedure: A suitable assay is described in the examples.
Inhibition of NS5B RNA Dependent RNA Polymerase Activity
The compounds of the invention were tested for inhibitory activity against the hepatitis C virus RNA dependant polymerase (NS5B), according to protocol described in WO 03/010141

hepatitis C virus RNA dependant polymerase (NS5B), sequence (P26663 2420-3010): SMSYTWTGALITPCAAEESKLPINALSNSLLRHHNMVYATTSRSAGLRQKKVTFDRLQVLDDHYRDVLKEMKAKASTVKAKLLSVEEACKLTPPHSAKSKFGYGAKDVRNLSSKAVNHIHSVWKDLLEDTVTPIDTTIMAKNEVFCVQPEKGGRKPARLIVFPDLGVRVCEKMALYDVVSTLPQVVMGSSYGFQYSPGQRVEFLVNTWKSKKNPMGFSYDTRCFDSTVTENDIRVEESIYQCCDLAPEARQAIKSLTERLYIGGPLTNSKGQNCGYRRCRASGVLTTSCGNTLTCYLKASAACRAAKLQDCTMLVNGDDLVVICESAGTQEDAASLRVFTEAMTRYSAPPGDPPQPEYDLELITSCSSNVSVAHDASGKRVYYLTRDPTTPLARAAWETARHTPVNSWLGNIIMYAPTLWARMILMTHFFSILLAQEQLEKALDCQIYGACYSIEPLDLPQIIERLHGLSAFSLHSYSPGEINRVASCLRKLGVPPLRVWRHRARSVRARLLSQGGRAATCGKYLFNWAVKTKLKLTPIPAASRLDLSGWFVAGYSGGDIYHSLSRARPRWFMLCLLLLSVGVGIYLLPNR

SMILES	IC50 (Table 4, class ranges)	IC50 (Table 1, HCV NS5B polymerase)	also measured
Cn1c(C(=O)O)cc2cc(NC(=O)C(C)(C)NC(=O)Cn3c(-c4ccoc4)c(C4CCCCC4)c4ccc(C(=O)O)cc43)ccc21 [Example 1054]	–	< 0.2 µM	–
O=C(Cn1c(-c2ccoc2)c(C2CCCCC2)c2ccc(C(=O)O)cc21)NCc1ccc(C(=O)O)cc1 [Example 1075]	–	< 0.2 µM	–
CC(C)(NC(=O)c1ccc2c(C3CCCCC3)c(-c3ccoc3)n(CC(=O)N3CCOCC3)c2c1)C(=O)O [Example 4087]	< 0.2 µM	–	–
CN1CCN(C(=O)Cn2c(-c3ccccn3)c(C3CCCCC3)c3ccc(C(=O)NC4(C(=O)Nc5ccc(/C=C/C(=O)O)cc5)CCC4)cc32)CC1 [Example 3007]	–	–	IC50 (Table 3, HCV NS5B polymerase): < 0.2 µM
CC(C)=CCn1c(-c2ccoc2)c(C2CCCCC2)c2ccc(C(=O)O)cc21 [Example 5006]	–	–	IC50 (Table 5, HCV NS5B polymerase): 1 to 10 µM
CC1CCN(C(=O)Cn2c(-c3ccoc3)c(C3CCCCC3)c3ccc(C(=O)O)cc32)CC1 [Example 1101]	–	0.2 to 1 µM	–
O=C(NC1CCCc2ccccc21)c1ccc2c(c1)c(C1CCCCC1)c(-c1ccoc1)n2CC(=O)N1CCC(N2CCCC2)CC1 (stereo not drawn) [Example 7012]	–	–	IC50 (Table 7, class ranges): 1 to 10 µM
O=C(NCc1ccccc1)c1ccc2c(c1)c(C1CCCCC1)c(-c1ccoc1)n2CC(=O)N1CCC(N2CCCC2)CC1 [Example 7027]	–	–	IC50 (Table 7, class ranges): 1 to 10 µM
CCN(CCOC)C(=O)Cn1c(-c2ccoc2)c(C2CCCCC2)c2ccc(C(=O)O)cc21 [Example 1017]	–	< 0.2 µM	–
CN(C)C1CCN(C(=O)Cn2c(-c3ccoc3)c(C3CCCCC3)c3ccc(C(=O)O)cc32)C1 (stereo not drawn) [Example 1131]	–	< 0.2 µM	–
CCN(CC)C1CCN(C(=O)Cn2c(-c3ccoc3)c(C3CCCCC3)c3ccc(C(=O)O)cc32)C1 (stereo not drawn) [Example 1016]	–	< 0.2 µM	–
O=C(NS(=O)(=O)c1ccccc1)c1ccc2c(c1)c(C1CCCCC1)c(-c1ccoc1)n2CC(=O)N1CCC(N2CCCC2)CC1 [Example 7063]	–	–	IC50 (Table 7, class ranges): 1 to 10 µM
O=C(Cn1c(-c2ccoc2)c(C2CCCCC2)c2ccc(C(=O)O)cc21)N[C@@H](Cc1c[nH]c2ccc(O)cc12)C(=O)O [Example 1081]	–	< 0.2 µM	–
CC(C)NC(=O)Cn1c(-c2ccco2)c(C2CCCCC2)c2ccc(C(=O)O)cc21 [Example 1032]	–	0.2 to 1 µM	–
CCN(Cc1ccncc1)C(=O)Cn1c(-c2ccoc2)c(C2CCCCC2)c2ccc(C(=O)O)cc21 [Example 1005]	–	0.2 to 1 µM	–
O=C(NS(=O)(=O)c1c(F)cccc1F)c1ccc2c(C3CCCCC3)c(-c3ccoc3)n(CC(=O)N3CCOCC3)c2c1 [Example 2036]	–	–	IC50 (Table 2, HCV NS5B polymerase): < 0.2 µM
CN(C)C(=O)Cn1c(-c2ccoc2)c(C2CCCCC2)c2ccc(C(=O)NCc3ccccn3)cc21 [Example 4053]	0.2 to 1 µM	–	–
O=C(O)c1ccc2c(c1)c(C1CCCCC1)c(-c1ccoc1)n2CC(=O)N1CCC(N2CCCC2)CC1 [Example 6002]	–	–	IC50 (Table 6, HCV NS5B polymerase): < 0.2 µM
CC(C)N(C)C(=O)Cn1c(-c2ccoc2)c(C2CCCCC2)c2ccc(C(=O)O)cc21 [Example 1118]	–	< 0.2 µM	–
COc1ccc([C@@H](C)NC(=O)c2ccc3c(C4CCCCC4)c(-c4ccoc4)n(CC(=O)N(C)C)c3c2)cc1 [Example 4059]	< 0.2 µM	–	–

Second part, led by results:

IC50 (Table 4, class ranges)	IC50 (Table 1, HCV NS5B polymerase)	SMILES	also measured
0.2 to 1 µM	–	CN(C)CCNC(=O)c1ccc2c(C3CCCCC3)c(-c3ccoc3)n(CC(=O)N3CCN(C)CC3)c2c1 [Example 4025]	–
0.2 to 1 µM	–	CN1CCN(C(=O)Cn2c(-c3ccoc3)c(C3CCCCC3)c3ccc(C(=O)NC4CC4c4ccccc4)cc32)CC1 (racemic) [Example 4038]	–
0.2 to 1 µM	–	CCN1CCCC1CNC(=O)c1ccc2c(C3CCCCC3)c(-c3ccoc3)n(CC(=O)N3CCN(C)CC3)c2c1 (stereo not drawn) [Example 4010]	–
–	0.2 to 1 µM	CC(C)(NC(=O)Cn1c(-c2ccccn2)c(C2CCCCC2)c2ccc(C(=O)O)cc21)C(=O)Nc1ccc(/C=C/C(=O)O)cc1 [Example 1083]	–
0.2 to 1 µM	–	O=C(NCc1ccccn1)c1ccc2c(C3CCCCC3)c(-c3ccoc3)n(CC(=O)N3CCOCC3)c2c1 [Example 4046]	–
1 to 10 µM	–	O=C(NC(=O)c1ccc2c(C3CCCCC3)c(-c3ccoc3)n(CC(=O)N3CCOCC3)c2c1)c1ccccc1 [Example 4065]	–
0.2 to 1 µM	–	CNC(=O)c1ccc2c(C3CCCCC3)c(-c3ccoc3)n(CC(=O)N3CCN(C)CC3)c2c1 [Example 4028]	–
